Measured values taken from publication PMC7413254 (Nature Communications, 2020).
“And” between values parts separate entries of the source, which are not always exact repeats. Equal entries are not always repeated. Where two headings read alike, the source gives them in different places.

Assays:
[1] = system: PfCRT; assay: Influx of VF-6 via PfCRT into the oocyte, solutes tested as potential co-substrates; type: cell-based, Plasmodium falciparum; set-up: key: X: Compounds that have been tested as potential co-substrates but are not required for influx of VF-6 via PfCRT into the oocyte; settings: X marks the solute
[2] = molecular target: PfCRT^3D7 (Plasmodium falciparum, UniProt Q8IBZ9); assay: cell-based
Protocol: (§1) The characterisation of [^3H]VF-6 transport via 23 different field and laboratory-derived isoforms of PfCRT was undertaken with oocytes two days post-cRNA-injection (Figs. 3a–j, 4; Supplementary Fig. 2). The oocytes were injected with 25 nL of ND96 buffer (pH 5.5) supplemented with [^3H]VF-6 and unlabelled VF-6 to achieve estimated intracellular concentrations of 1.4 and 200 μM, respectively. Ten oocytes that had resealed at the injection site were transferred to a 5 mL polystyrene round bottom tube (In Vitro Technologies) and washed with 3.5 mL of ND96 buffer before being transferred to separate wells of a white 96-well plate (PerkinElmer). This treatment served to establish the amount of radioactivity within the oocytes immediately prior to the commencement of the transport assay. Another 10 resealed oocytes were transferred to a 5 mL tube and washed with 3.5 mL of ND96 buffer. […] The assay was terminated by removing the reaction buffer with a pipette and washing the oocytes twice with 3.5 mL of ice-cold ND96 buffer. Each oocyte was transferred to a separate well of a white 96-well plate. The oocytes were lysed by the addition of 20 μL of 10% (w/v) SDS and overnight incubation at room temperature. The lysed oocyte was then combined with 150 μL of MicroScint-40 microscintillant (PerkinElmer), the plate covered with a TopSeal-A (PerkinElmer), and the radioactivity measured with a MicroBeta^2 microplate liquid scintillation analyser (PerkinElmer). VF-6 transport was calculated by subtracting the amount of radioactivity (measured in counts per minute) present within the oocytes at the end of the incubation from that measured in the oocytes sampled immediately before the commencement of the assay. The pH-dependence of transport (Fig. 3c) was determined by injecting the oocytes with [^3H]VF-6 suspended in 25 nL ND96 buffer adjusted to pH 5.0, 5.5, 6.0 or 7.0, which corresponded to the injection of 2.5–250 fmol of H^+. The dependence of [^3H]VF-6 transport on Na^+ or Cl^− was examined by injecting the oocytes with [^3H]VF-6 suspended in the control ND96 buffer (pH 5.5) or a version of this buffer that lacked either Na^+ or Cl^− (Supplementary Fig. 2). […] The dependence of peptide transport on Ca^2+ was determined by injecting the oocytes with [^3H]VF-6 suspended in ND96 buffers that contained different concentrations of Ca^2+ (0–5 mM; Supplementary Fig. 2). […] The dependence of PfCRT-mediated transport on the membrane potential was examined by using (1) Na^+ ionophore III in conjunction with the Na^+ gradients listed in Supplementary Data 7 and (2) Cl^− ionophore III in conjunction with the Cl^− gradients listed in Supplementary Data 7 to clamp the membrane potential of the oocyte from −80 to +80 mV. […] The kinetic parameters for VF-6 transport via different isoforms of PfCRT (Figs. 3e and 4a) were determined in SigmaPlot Windows Version 11.0 by a least-squares fit of the Michaelis–Menten equation to the data.
(§2) A subset of assays measured the ability of solutes known to interact with PfCRT to either cis-inhibit, trans-inhibit or trans-stimulate [^3H]VF-6 transport. These experiments involved adding these solutes to either the cis- or trans-side of the membrane relative to [^3H]VF-6. […] At least five independent experiments were performed (on different days and using oocytes from different frogs), and within each experiment measurements were made from ten oocytes per treatment.

[3] = molecular target: PfCRT^Dd2 (Plasmodium falciparum, UniProt Q9N623, A220S/I356T/K76T/M74I/N326S/N75E/Q271E/R371I); assay: cell-based; settings: trans-inhibition, treatment 45 mM
Protocol: as §1, §2

[4] = molecular target: PfCRT^Ecu1110 (Plasmodium falciparum, UniProt Q9N623, A220S/I356L/K76T/N326D); assay: cell-based; settings: trans-inhibition, treatment 45 mM
Protocol: as §1, §2

Sequence of PfCRT^Dd2 (Q9N623 whole entry A220S/I356T/K76T/M74I/N326S/N75E/Q271E/R371I): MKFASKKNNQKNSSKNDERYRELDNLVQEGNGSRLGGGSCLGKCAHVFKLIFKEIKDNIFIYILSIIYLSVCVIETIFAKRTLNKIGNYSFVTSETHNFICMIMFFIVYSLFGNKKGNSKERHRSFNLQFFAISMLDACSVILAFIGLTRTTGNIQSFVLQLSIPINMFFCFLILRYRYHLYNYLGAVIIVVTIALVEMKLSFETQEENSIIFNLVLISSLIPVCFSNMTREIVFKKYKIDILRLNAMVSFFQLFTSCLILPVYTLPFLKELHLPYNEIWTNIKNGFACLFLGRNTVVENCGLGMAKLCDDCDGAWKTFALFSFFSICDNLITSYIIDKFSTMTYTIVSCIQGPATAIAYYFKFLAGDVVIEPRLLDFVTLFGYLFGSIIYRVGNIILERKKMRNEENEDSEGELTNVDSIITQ
Sequence of PfCRT^3D7 (Q8IBZ9 59-398): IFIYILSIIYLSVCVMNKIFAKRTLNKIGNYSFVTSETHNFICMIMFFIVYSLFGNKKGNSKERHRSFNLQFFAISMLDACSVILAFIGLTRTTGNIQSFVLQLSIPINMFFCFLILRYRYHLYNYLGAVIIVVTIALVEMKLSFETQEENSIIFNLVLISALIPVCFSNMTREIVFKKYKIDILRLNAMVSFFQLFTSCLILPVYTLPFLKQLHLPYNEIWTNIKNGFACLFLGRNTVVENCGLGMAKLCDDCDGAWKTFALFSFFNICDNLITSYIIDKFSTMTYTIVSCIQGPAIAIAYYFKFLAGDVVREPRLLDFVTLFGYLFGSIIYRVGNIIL
Sequence of PfCRT^Ecu1110 (Q9N623 whole entry A220S/I356L/K76T/N326D): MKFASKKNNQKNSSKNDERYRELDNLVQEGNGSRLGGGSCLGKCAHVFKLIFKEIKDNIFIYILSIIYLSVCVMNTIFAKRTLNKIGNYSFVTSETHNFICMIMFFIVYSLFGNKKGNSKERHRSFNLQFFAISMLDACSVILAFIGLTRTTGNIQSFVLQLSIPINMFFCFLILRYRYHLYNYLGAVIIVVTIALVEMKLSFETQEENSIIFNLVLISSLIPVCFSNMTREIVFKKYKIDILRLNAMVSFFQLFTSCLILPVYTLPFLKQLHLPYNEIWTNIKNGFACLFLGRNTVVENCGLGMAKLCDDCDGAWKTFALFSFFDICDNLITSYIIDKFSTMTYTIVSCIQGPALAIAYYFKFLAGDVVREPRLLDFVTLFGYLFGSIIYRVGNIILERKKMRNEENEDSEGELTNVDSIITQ

## N[C@@H](CO)C(=O)O [L-serine]
[1]
  Compounds that have been tested as potential co-substrates but are not required for influx of VF-6 via PfCRT into the oocyte: X

## VDPVN [VF-6-derived peptide]
[2]; trans-inhibition, treatment 45 mM, Experiment 1
  [3H]VF-6 transport, PfCRT3D7 (% PfCRT3D7 control): 20.24 % PfCRT3D7 control
[2]; trans-inhibition, treatment 45 mM, Experiment 2
  [3H]VF-6 transport, PfCRT3D7 (% PfCRT3D7 control): 19.6 % PfCRT3D7 control
[2]; trans-inhibition, treatment 45 mM, Experiment 3
  [3H]VF-6 transport, PfCRT3D7 (% PfCRT3D7 control): 22.64 % PfCRT3D7 control
[2]; trans-inhibition, treatment 45 mM, Experiment 4
  [3H]VF-6 transport, PfCRT3D7 (% PfCRT3D7 control): 22.05 % PfCRT3D7 control
[2]; trans-inhibition, treatment 45 mM, Experiment 5
  [3H]VF-6 transport, PfCRT3D7 (% PfCRT3D7 control): 19.48 % PfCRT3D7 control
[3]; Experiment 1
  [3H]VF-6 transport, PfCRTDd2 (% PfCRT3D7 control): 7.28 % PfCRT3D7 control
[3]; Experiment 2
  [3H]VF-6 transport, PfCRTDd2 (% PfCRT3D7 control): 7.49 % PfCRT3D7 control
[3]; Experiment 3
  [3H]VF-6 transport, PfCRTDd2 (% PfCRT3D7 control): 7.54 % PfCRT3D7 control
[3]; Experiment 4
  [3H]VF-6 transport, PfCRTDd2 (% PfCRT3D7 control): 7.59 % PfCRT3D7 control
[3]; Experiment 5
  [3H]VF-6 transport, PfCRTDd2 (% PfCRT3D7 control): 7.33 % PfCRT3D7 control
[4]; Experiment 1
  [3H]VF-6 transport, PfCRTEcu1110 (% PfCRT3D7 control): 6.34 % PfCRT3D7 control
[4]; Experiment 2
  [3H]VF-6 transport, PfCRTEcu1110 (% PfCRT3D7 control): 5.74 % PfCRT3D7 control
[4]; Experiment 3
  [3H]VF-6 transport, PfCRTEcu1110 (% PfCRT3D7 control): 6.34 % PfCRT3D7 control
[4]; Experiment 4
  [3H]VF-6 transport, PfCRTEcu1110 (% PfCRT3D7 control): 6.94 % PfCRT3D7 control
[4]; Experiment 5
  [3H]VF-6 transport, PfCRTEcu1110 (% PfCRT3D7 control): 6.25 % PfCRT3D7 control

## C[C@H](N)C(=O)O [L-alanine]
[1]
  Compounds that have been tested as potential co-substrates but are not required for influx of VF-6 via PfCRT into the oocyte: X

## C[C@@H](O)[C@H](N)C(=O)O [L-threonine]
[1]
  Compounds that have been tested as potential co-substrates but are not required for influx of VF-6 via PfCRT into the oocyte: X

## N[C@@H](CS)C(=O)O [L-cysteine]
[1]
  Compounds that have been tested as potential co-substrates but are not required for influx of VF-6 via PfCRT into the oocyte: X

## NC(=O)CC[C@H](N)C(=O)O [L-glutamine]
[1]
  Compounds that have been tested as potential co-substrates but are not required for influx of VF-6 via PfCRT into the oocyte: X

## N[C@@H](Cc1ccccc1)C(=O)O [L-phenylalanine]
[1]
  Compounds that have been tested as potential co-substrates but are not required for influx of VF-6 via PfCRT into the oocyte: X

## CC[C@H](C)[C@H](N)C(=O)O [L-isoleucine]
[1]
  Compounds that have been tested as potential co-substrates but are not required for influx of VF-6 via PfCRT into the oocyte: X

## PVNF [VF-6-derived peptide]
[2]
  [3H]VF-6 transport, PfCRT3D7 (% PfCRT3D7 control): 25.32 % PfCRT3D7 control and 24.64 % PfCRT3D7 control and 25.23 % PfCRT3D7 control and 25.9 % PfCRT3D7 control and 23.94 % PfCRT3D7 control
[3]; Experiment 1
  [3H]VF-6 transport, PfCRTDd2 (% PfCRT3D7 control): 8.23 % PfCRT3D7 control
[3]; Experiment 2
  [3H]VF-6 transport, PfCRTDd2 (% PfCRT3D7 control): 8.92 % PfCRT3D7 control
[3]; Experiment 3
  [3H]VF-6 transport, PfCRTDd2 (% PfCRT3D7 control): 7.3 % PfCRT3D7 control
[3]; Experiment 4
  [3H]VF-6 transport, PfCRTDd2 (% PfCRT3D7 control): 7.53 % PfCRT3D7 control
[3]; Experiment 5
  [3H]VF-6 transport, PfCRTDd2 (% PfCRT3D7 control): 7.44 % PfCRT3D7 control
[4]; Experiment 1
  [3H]VF-6 transport, PfCRTEcu1110 (% PfCRT3D7 control): 10.55 % PfCRT3D7 control
[4]; Experiment 2
  [3H]VF-6 transport, PfCRTEcu1110 (% PfCRT3D7 control): 12.46 % PfCRT3D7 control
[4]; Experiment 3
  [3H]VF-6 transport, PfCRTEcu1110 (% PfCRT3D7 control): 11.35 % PfCRT3D7 control
[4]; Experiment 4
  [3H]VF-6 transport, PfCRTEcu1110 (% PfCRT3D7 control): 10.58 % PfCRT3D7 control
[4]; Experiment 5
  [3H]VF-6 transport, PfCRTEcu1110 (% PfCRT3D7 control): 10.07 % PfCRT3D7 control

## N=C(N)NCCC[C@H](N)C(=O)O [L-arginine]
[1]
  Compounds that have been tested as potential co-substrates but are not required for influx of VF-6 via PfCRT into the oocyte: X

## NCCCC[C@H](N)C(=O)O [L-lysine]
[1]
  Compounds that have been tested as potential co-substrates but are not required for influx of VF-6 via PfCRT into the oocyte: X
